Assay results: PMC9612054, “Experimental and Computational Analysis of Newly Synthesized Benzotriazinone Sulfonamides as Alpha-Glucosidase Inhibitors” (Molecules, 2022)

Key:
[1] = Solubility (physiochemical properties); format: physicochemical; conditions: solvents in which the compound is soluble
alpha-glucosidase = target: alpha-glucosidase; parameters: method as in doi:10.1007/s00044-022-02883-1; conditions: earlier series; cited from earlier work
[2] = target: T1, alpha-Glucosidase (Cat No. 5003-1KU Type I) (Saccharomyces cerevisiae, UniProt P53341); assay: biochemical; conditions: for inhibition at 500 µM: pH 6.8, read-out: % Inhibition at 0.5 mM
T1 construct: purchased 5003-1KU Type I
Protocol: It actively works in the intestinal tract by inhibiting alpha-glucosidase, which is responsible for the conversion of complex carbohydrates to absorbable glucose. […] Therefore, an alpha-glucosidase inhibition assay of newly synthesized amino benzotriazinones 11a–11b and their corresponding sulfonamides 12a–12f was carried out by spectrophotometric method.
Alpha-glucosidase inhibition activity was carried out by the Pierre et al. method with slight modifications, and alpha-Glucosidase (Cat No. 5003-1KU Type I) from Saccharomyces cereviciae was utilized for the experimental protocol due to its resemblances to the structure and function of yeast/mammalian enzyme. For test, saline phosphate buffer (70 μL, 50 mM with pH 6.8), alpha-glucosidase enzyme (10 μL, 0.0234 units) and test compound (10 μL, 0.5 mM) were taken in test tubes and incubated for 10 min at 37 °C. Absorbance of these prepared samples was recorded at 400 nm. 10 μL p-nitrophenyl-alpha-D-glucopyranoside (0.5 mM, ‘substrate’, code No. N1377 from Sigma) was used to initiate the reaction and test tubes were allowed to stand for 30 min. Then, the variation in concentration of free substrate was noted by the change in absorbance. The enzyme percentage inhibition was estimated by the following formula and IC50 values were calculated by ‘EZ-Fit enzyme kinetics software. % Inhibition = [([…])/Abs. of control] × 100

T1 sequence (P53341 whole entry): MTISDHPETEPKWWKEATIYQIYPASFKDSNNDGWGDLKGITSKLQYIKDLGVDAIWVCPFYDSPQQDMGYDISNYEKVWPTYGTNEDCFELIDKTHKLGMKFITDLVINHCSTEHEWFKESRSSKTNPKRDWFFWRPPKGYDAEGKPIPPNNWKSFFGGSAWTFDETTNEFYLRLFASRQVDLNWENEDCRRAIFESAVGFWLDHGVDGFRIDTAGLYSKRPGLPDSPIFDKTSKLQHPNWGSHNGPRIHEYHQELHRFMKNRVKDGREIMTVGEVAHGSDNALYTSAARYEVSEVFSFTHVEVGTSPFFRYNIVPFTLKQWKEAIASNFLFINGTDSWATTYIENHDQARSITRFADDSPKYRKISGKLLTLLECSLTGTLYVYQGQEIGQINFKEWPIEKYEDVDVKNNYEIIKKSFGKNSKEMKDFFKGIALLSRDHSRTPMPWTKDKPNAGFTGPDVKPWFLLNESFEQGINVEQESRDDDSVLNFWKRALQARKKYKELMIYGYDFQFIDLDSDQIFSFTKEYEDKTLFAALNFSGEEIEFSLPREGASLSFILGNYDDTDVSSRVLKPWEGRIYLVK

Compound	Solubility [1]	IC50 (alpha-glucosidase) [µM]	melting point [°C]	inhibition at 500 µM [2] [%]	IC50 [2] [µM]	% Inhibition at 0.5 mM ([2]; test compound 0.5 mM, pH 6.8, 37 °C) [%]
6-Nitroisatoic Anhydride [Compound 8]	Ethanol, DMSO					
Cc1ccc(NS(=O)(=O)c2ccc(-n3nnc4ccccc4c3=O)cc2)cc1C [Compound 4]		29.75 ± 0.14				
CCCNC(=O)c1cc([N+](=O)[O-])ccc1N [Compound 9a, 2-Amino-5-nitro-N-propylbenzamide]	Ethanol, DMSO		195 to 197			
CCCCNC(=O)c1cc([N+](=O)[O-])ccc1N [Compound 9b, 2-Amino-5-nitro-N-butylbenzamide]	Ethanol, DMSO		197 to 199			
CCCn1nnc2ccc([N+](=O)[O-])cc2c1=O [Compound 10a, 6-Nitro-3-propylbenzo[1,2,3]triazin-4(3H)-one]	Ethanol, DMSO		215 to 217			
CCCCn1nnc2ccc([N+](=O)[O-])cc2c1=O [Compound 10b, 6-Nitro-3-butylbenzo[1,2,3]triazin-4(3H)-one]	Ethanol, DMSO		217 to 218			
CCCn1nnc2ccc(N)cc2c1=O [Compound 11a, 6-Amino-3-propylbenzo[1,2,3]triazin-4(3H)-one]	Methanol, DMSO		185 to 186	26.12 ± 0.13		
CCCCn1nnc2ccc(N)cc2c1=O [Compound 11b, 6-Amino-3-butylbenzo[1,2,3]triazin-4(3H)-one]	Methanol, DMSO		191 to 192	27.12 ± 0.13		
CCCn1nnc2ccc(NS(=O)(=O)c3ccccc3)cc2c1=O [Compound 12a, N-(4-Oxo-3-propyl-3,4-dihydrobenzo[1,2,3]triazin-6-yl)benzenesulfonamide]	Ethanol, DMSO		171 to 173	51.25 ± 0.16		
CCCn1nnc2ccc(NS(=O)(=O)c3ccc(OC)cc3)cc2c1=O [Compound 12b, 4-Methoxy-N-(4-oxo-3-propyl-3,4-dihydrobenzo[1,2,3]triazin-6-yl)benzenesulfonmide]	Ethanol, DMSO		175 to 177	91.73 ± 0.17	39.21 ± 0.12	
CCCn1nnc2ccc(NS(=O)(=O)c3ccc(Cl)cc3)cc2c1=O [Compound 12c, 4-Chloro-N-(4-oxo-3-propyl-3,4-dihydrobenzo[1,2,3]triazin-6-yl)benzenesulfonamide]	Ethanol, DMSO		169 to 171	78.12 ± 0.16	53.76 ± 0.14	
CCCn1nnc2ccc(NS(=O)(=O)c3ccc(Br)cc3)cc2c1=O [Compound 12d, 4-Bromo-N-(4-oxo-3-propyl-3,4-dihydrobenzo[1,2,3]triazin-6-yl)benzenesulfonamide]	Ethanol, DMSO			79.42 ± 0.15	55.21 ± 0.12	
CCCn1nnc2ccc(NS(=O)(=O)c3ccc([N+](=O)[O-])cc3)cc2c1=O [Compound 12e, 4-Nitro-N-(4-oxo-3-propyl-3,4-dihydrobenzo[1,2,3]triazin-6-yl)benzenesulfonamide]	Ethanol, DMSO		167 to 169	96.27 ± 0.19	32.37 ± 0.15	
CCCCn1nnc2ccc(NS(=O)(=O)c3ccc([N+](=O)[O-])cc3)cc2c1=O [Compound 12f, 4-Nitro-N-(4-oxo-3-butyl-3,4-dihydrobenzo[1,2,3]triazin-6 yl)benzenesulfonamide]	Ethanol, DMSO		179 to 181	93.27 ± 0.14	37.75 ± 0.11	
C[C@H]1O[C@H](O[C@H]2[C@H](O)[C@@H](O)[C@@H](O[C@H]3[C@H](O)[C@@H](O)C(O)O[C@@H]3CO)O[C@@H]2CO)[C@H](O)[C@@H](O)[C@@H]1N[C@H]1C=C(CO)[C@@H](O)[C@H](O)[C@H]1O (stereo partly shown) [acarbose, reference compound]						92.23 ± 0.16
Isatoic Anhydride [Compound 7]	Ethanol, DMSO					
